Test results taken from US8536164B2, “Fused pyridine compounds as casein kinase inhibitors” (Pfizer Inc., priority 2010, dated 2013).

Tests used:
CKI ε wild type = CKI ε wild type (Homo sapiens, UniProt P49674); assay: CK1ε kinase assay (Kinase-Glo); type: biochemical; settings: 10 μM ATP, 2.5 nM CKI ε, 70 min at 25° C.; read-out: CK1 ε:IC50
Experimental: (§1) The CK1ε kinase assay was performed in a 40-μl final volume in buffer containing 50 mM Tris, pH 7.5, 10 mM MgCl2, 1 mM dithiothreitol, 100 μg/mL BSA with 10 μM ATP, 2.5 nM CKI ε wild type, and 42 μM peptide substrate PLSRTLp[…] (Flotow et al., 1990) in the presence of 1 μl of CKI ε inhibitor or 4% DMSO. The reaction was incubated for 70 min at 25° C.; detection was carried out as described for the Kinase-Glo Assay (Promega). Luminescent output was measured on the Perkin Elmer Envision plate reader (PerkinElmer, Waltham, Mass.).

[1] = molecular target: T1, human CK1δ (Cos 7 cells cotransfected with mouse Per3-GFP) (Homo sapiens, UniProt P48730); assay: CK1 WCA HCS nuclear translocation assay (CK1δ); type: cell-based; settings: inhibition of mPer3-GFP translocation to the nucleus, overnight exposure, read-out: CK1 δ WCA EC50
T1 construct: His tag of the vector pcDNA4/hisA (only the vector name is printed); expressed in transfected cells; host or cells: Cos 7 cells
T1 sequence (P48730 whole entry): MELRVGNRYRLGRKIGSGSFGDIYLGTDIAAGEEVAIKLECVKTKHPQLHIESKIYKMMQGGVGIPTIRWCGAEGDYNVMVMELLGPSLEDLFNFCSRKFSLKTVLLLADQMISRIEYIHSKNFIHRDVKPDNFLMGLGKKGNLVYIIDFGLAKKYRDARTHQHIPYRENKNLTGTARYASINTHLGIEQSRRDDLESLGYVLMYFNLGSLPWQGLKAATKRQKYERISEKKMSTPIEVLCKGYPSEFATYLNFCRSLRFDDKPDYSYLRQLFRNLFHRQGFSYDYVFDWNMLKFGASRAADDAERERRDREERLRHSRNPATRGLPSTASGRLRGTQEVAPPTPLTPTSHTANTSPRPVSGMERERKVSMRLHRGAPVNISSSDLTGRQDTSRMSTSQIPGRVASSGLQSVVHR
Experimental: (§2) CK1 WCA HCS Nuclear Translocation Assay.
(§3) Cos 7 cells were maintained at 37° C. in 5% CO2 in Dulbecco's Modified Eagle Medium (Gibco 11995) supplemented with 10% fetal bovine serum. Log-phase cells were dislodged with 5 min treatment of TrypLE Express (Gibco 12605) and viable cell count was determined with Cedex cell counter. Cells were diluted in DMEM medium to a density of 1.5e5 viable cells/mL in ⅔ of the final volume of final transfected cell mix. Cells were cotransfected with two plasmid DNAs, mouse Per3-GFP (green fluorescent protein) in pd2EGFP-N1 vector and human CKI in pcDNA4/hisA vector (for CK1Epsilon at a ratio of 1:5 respectively; for CK1δ at a ratio of 1:11 respectively), using Lipofectamine 2000 reagent (Invitrogen) according to the manufacturer's recommendations. The transfection mix contained approximately 0.83 μg/mL of DNA and 6 μL/mL of Lipofectamine 2000, in a total of ⅓ of the final transfection volume in Opti-MEM I medium (Invitrogen). After 20 min at rt, the cell mix was combined with the DNA transfection mix, per manufacturer instructions. 50 μL of the transfected cell suspension was dispensed per well by multidrop dispenser into Greiner 384-well Cellcoat (PDL) plates (Greiner #781946).
(§4) Compounds were solubilized in 100% DMSO, diluted with Opti-MEM I to a 4× concentration before addition to plated cells. After overnight exposure at 37° C. in a CO2 incubator, cells were fixed by the addition of 12% paraformaldehyde (Electron Microscopy Sciences, Hatfield, Pa.) in phosphate-buffered saline (PBS) with 20% sucrose to a final concentration of 4%, and then the cells were incubated for 30 min at rt. Fixative was removed, and cells were washed with PBS and then stained with 0.4 μg/ml Hoechst dye (Invitrogen) in blocking buffer containing 4% goat serum (Vector Labs s-1000) and 0.1% TritonX (Sigma T8787) for 1 h. Cells were washed again with PBS and stored at 4° C. in PBS or scanned immediately with the Cellomics ArrayScan VTI. CKIδ dependent nuclear localization of the GFP-tagged mPer3 protein was quantitated using the Cellomics ArrayScan VTI system utilizing the Cytoplasm to Nucleus translocation bioapplication to calculate the Nuclear-Cytoplasmic Intensity difference. Inhibitors of CK1 δ/ε were tested across a dose response curve to evaluate their ability to inhibit mPer3-GFP translocation to the nucleus. Cells with a total intensity of mPER3:GFP expression equal to or greater than 20,000 are included in analysis.

CKIδ wild type = CKIδ wild type (Homo sapiens, UniProt P48730); assay: CK1δ kinase assay (Kinase-Glo); type: biochemical; settings: 10 μM ATP, 2 nM CKIδ, 85 min at 25° C.; read-out: CK1 δ IC50
CKIδ wild type, sequence (P48730 whole entry): as above
Experimental: as §1, with “CK1δ” for “CK1ε”, “40 μl” for “40-μl”, “2” for “2.5”, “CKIδ” for “CKI ε”, “85” for “70”

[2] = molecular target: T2, human CK1Epsilon (Cos 7 cells cotransfected with mouse Per3-GFP) (Homo sapiens, UniProt P49674); assay: CK1 WCA HCS nuclear translocation assay (CK1ε); type: cell-based; settings: inhibition of mPer3-GFP translocation to the nucleus, overnight exposure, read-out: CK1 ε WCA EC50
T2 construct: His tag of the vector pcDNA4/hisA (only the vector name is printed); expressed in transfected cells; host or cells: Cos 7 cells
T2 sequence (P49674 whole entry): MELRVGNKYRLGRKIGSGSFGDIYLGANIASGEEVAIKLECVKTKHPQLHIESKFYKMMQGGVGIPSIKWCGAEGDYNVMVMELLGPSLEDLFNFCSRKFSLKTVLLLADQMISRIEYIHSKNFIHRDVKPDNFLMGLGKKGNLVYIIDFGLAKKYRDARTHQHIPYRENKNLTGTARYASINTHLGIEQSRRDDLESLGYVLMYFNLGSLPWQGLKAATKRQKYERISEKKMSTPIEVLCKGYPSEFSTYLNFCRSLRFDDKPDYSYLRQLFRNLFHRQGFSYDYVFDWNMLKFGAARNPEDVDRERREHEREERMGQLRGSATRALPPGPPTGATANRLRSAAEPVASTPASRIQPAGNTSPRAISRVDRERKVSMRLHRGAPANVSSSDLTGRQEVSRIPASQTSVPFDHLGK
Experimental: as §2, §3, §4

CKI ε wild type, sequence (P49674 whole entry): as above

IC50 (CKI ε wild type) [nM]	EC50 [1] [nM]	IC50 (CKIδ wild type) [nM]	EC50 [2] [nM]	Structure (SMILES)
–	47.5	–	210	COCC(=O)N1Cc2nccc(-c3cn(C)nc3-c3ccc(F)cc3)c2C1 [Example 17, 4-[3-(4-fluorophenyl)-1-methyl-1H-pyrazol-4-yl]-6-(methoxyacetyl)-6,7-dihydro-5H-pyrrolo[3,4-b]pyridine]
–	16.2	–	124	CCC(=O)N1Cc2nccc(-c3cn(C)nc3-c3ccc(F)cc3)c2C1 [Example 13, 4-[3-(4-fluorophenyl)-1-methyl-1H-pyrazol-4-yl]-6-propionyl-6,7-dihydro-5H-pyrrolo[3,4-b]pyridine]
61.5	99	12.4	468	CCN1Cc2nccc(-c3cn(C)nc3-c3ccc(F)cc3)c2C1=O [Example 34, 6-ethyl-4-[3-(4-fluorophenyl)-1-methyl-1H-pyrazol-4-yl]-6,7-dihydro-5H-pyrrolo[3,4-b]pyridin-5-one]

Further lines, the molecule ahead of its results:

Structure (SMILES)	IC50 (CKI ε wild type) [nM]	EC50 [1] [nM]	IC50 (CKIδ wild type) [nM]	EC50 [2] [nM]
Cn1cc(-c2ccnc3c2C(=O)NC3)c(-c2ccc(F)cc2)n1 [Example 4, 4-[3-(4-fluorophenyl)-1-methyl-1H-pyrazol-4-yl]-6,7-dihydro-5H-pyrrolo[3,4-b]pyridin-5-one]	72.7	122	13.9	684
Cn1cc(-c2ccnc3c2C(=O)OC3)c(-c2ccc(F)cc2)n1 [Example 1, 4-(3-(4-fluorophenyl)-1-methyl-1H-pyrazol-4-yl)furo[3,4-b]pyridin-5(7H)-one]	26.9	59.8	7.91	355
CC1CNCc2nccc(-c3cn(C)nc3-c3ccc(F)cc3)c2O1 (racemic) [Example 8, 9-[3-(4-fluorophenyl)-1-methyl-1H-pyrazol-4-yl]-2-methyl-2,3,4,5-tetrahydropyrido[2,3-f][1,4]oxazepine]	–	47	–	217
Cn1cc(-c2ccnc3c2CN(S(C)(=O)=O)C3)c(-c2ccc(F)cc2)n1 [Example 10, 4-[3-(4-fluorophenyl)-1-methyl-1H-pyrazol-4-yl]-6-(methylsulfonyl)-6,7-dihydro-5H-pyrrolo[3,4-b]pyridine]	10.8	13.5	3.11	62.4
CN1Cc2nccc(-c3cn(C)nc3-c3ccc(Cl)cc3)c2C1=O [Example 3, 4-[3-(4-chlorophenyl)-1-methyl-1H-pyrazol-4-yl]-6-methyl-6,7-dihydro-5H-pyrrolo[3,4-b]pyridin-5-one]	–	78.2	–	343
Cn1cc(-c2ccnc3c2OCCNC3)c(-c2ccc(F)cc2)n1 [Example 7, 9-[3-(4-fluorophenyl)-1-methyl-1H-pyrazol-4-yl]-2,3,4,5-tetrahydropyrido[2,3-f][1,4]oxazepine]	27.6	39.2	6.01	291
